Test results from US6395896B2, “Pyridazine derivatives, manufacturing method and related composition” (Shiseido Co., Ltd., priority 1999, dated 2002).

Tests used:
skin (face) = assay: Skin irritation test: continuous use test; format: in vivo, human; details: 10 wt % ultraviolet absorbent, twice a day for 4 weeks
Procedure: Sample (10 wt % of ultraviolet absorbent) is the same as test example 2. The continuous use test by the healthy subjects was carried out with one group of twenty subjects. A proper amount of each sample was applied to the face twice a day for 4 weeks. The evaluation standard of Table 5 was judged. [table] The calculated average score was evaluated by the next standard. A: Average score is 0. B: Average score is over 0 and less than 1. C: Average score is 1 or more, and less than 2. D: Average score is 2 or more.

[1] = Photostability test (aqueous solution exposed to sunlight); format: physicochemical; details: sunlight 80 MJ/m^2, two weeks
Procedure: After an aqueous solution of the pyridazine derivative of the present invention was exposed to sunlight (Amount of solar radiation exposure 80 MJ/m^2) for two weeks, residual yield and change of appearance were checked. UV absorption spectrum (Solvent: water, concentration: 10 ppm, Light path: 1 cm) was measured by spectrophotometer. Area value was calculated by integrating over the range of 290 nm to 400 nm of the ultraviolet rays absorption spectrum. The area value was compared with the value before sunlight exposure.
The residual yield and change of area value of ultraviolet rays absorption spectrum were evaluated by the following standard.
A: 95% or more of area value before sunlight exposure.
B: 90% or more and less than 95% of area value before sunlight exposure.
C: 70% or more and less than 90% of area value before sunlight exposure.
D: less than 70% of area value before sunlight exposure.

[2] = Stability test in case of including UV shielding agent of inorganic powder (sun-screen cream); format: physicochemical; details: sun-screen cream with inorganic powder, 10.0 wt % ultraviolet absorbent; 2 months at 50° C.; visual observation
Procedure: The sun screen cream of the following formulation was manufactured. These were preserved for 2 months at 50° C. By visual observation of discoloration, the inventors have checked stability when using an UV shielding agent of inorganic powder which is included as external skin preparation for the ultraviolet rays defense.
After (2) was added to (1) and was swelled sufficiently, (3) to (11) was added thereto and was mixed with heating. The mixture was sufficiently dissolved with dispersing. This dispersed liquid was kept at 70° C. After this dispersed liquid was emulsified homogeneously by homomixer with adding a mixture of (12) to (15) gradually, which was cooled to 30° C. with stirring well to obtain sun screen.

Discoloration [2]: No
Structure (SMILES): Oc1nncc(N2CCOCC2)c1N1CCOCC1 [4,5-Dimorpholino-3-hydroxypyridazine]
Judgment (continuous use test, average skin reaction score) (skin (face); Cream): A (Average score is 0.)
Judgment (continuous use test, average skin reaction score) (skin (face); Lotion): A (Average score is 0.)
Residual yield [1]: A (95% or more of area value before sunlight exposure.)
Change of area value of UV absorption spectrum ([1]; 290 nm to 400 nm): A (95% or more of area value before sunlight exposure.)
